Values quoted from earlier work as cited in US8410049B2, “Methods and kits for preventing hypoglycemia” (Cebix, priority 2009, dated 2013).

Details: in vivo; cited from earlier work

| Substance | Peak time of effect | Duration of activity | Onset of action [min] |
| --- | --- | --- | --- |
| Aspart | around 30 minutes |  |  |
| Glargine insulin | no peak effect | 24 h |  |
| Glulisine | around 30 minutes |  |  |
| Lantus |  | up to 24 hours |  |
| Lispro | around 30 minutes |  |  |
| Regular insulin |  |  | 30 to 60 |
